Here are results for 3 molecules from patent US8519155B2, “Choline and tromethamine salt of licofelone” (c-a-i-r biosciences GmbH, priority 2008, dated 2013).

Broadly, the solubility is how much of the substance goes into solution per volume. Read a low solubility as little dissolved substance.

≈ marks a conversion by molar mass, not a printed value. Structures can show the parent of a compound that is named as a salt.

Holding throughout (type): physicochemical
Data set [1] in a line: Solubility in 2-pyrrolidone. The conditions noted are these: 25° C., mixed for 30 min, Licofelone in supernatant by HPLC. On the procedure: Approx. 500 mg Licofelone (free acid) or the corresponding salt (examples 1A and 2) were suspended in 1 ml 2-pyrrolidone and mixed for 30 min. The temperature was maintained at 25° C. After centrifugation the concentration of Licofelone in the supernatant was determined by HPLC with UV detection.

The nature of data set [2]: Solubility in Fasted State Simulated Intestinal Fluid (FaSSIF). The conditions noted are these: after 15 min, HPLC; for solubility in 30 ml FaSSIF, conc.: 30 ml FaSSIF pH 6.5, approx. 50 mg (as free acid); for solubility in 100 ml FaSSIF, conc.: 100 ml FaSSIF pH 6.5, approx. 50 mg (as free acid). As to the method:
FaSSIF was prepared according to the literature (e.g. Marques M, Dissolution Technologies, May 2004). […] The pH value was adjusted to 6.5 using 1 N NaOH. The ready-to-use FaSSIF was prepared by dissolving 3.3 g sodium taurocholate in 500 ml blank FaSSIF. Then, 11.8 ml of a solution of 100 mg/ml lecithin in dichloromethane was added and the thereafter, the solvent dichloromethane was removed under vacuum at 40° C. Thereafter the clear solution was transferred into a graduated 2 l flask and made up to volume with blank FaSSIF.
Solubility studies were performed with Licofelone (free acid), Licofelone tromethamol salt (example 2) and Licofelone choline salt (example 1A). The test articles were placed in a beaker, FaSSIF and a magnetic stirring bar were added and the mixture was stirred using a magnetic stirrer. After 15 min, samples were withdrawn, filtered and the clear filtrate was analyzed by HPLC to determine the concentration of Licofelone.
The dissolution test was performed in 100 ml FaSSIF and 30 ml FaSSIF. The lower volume was selected in order to simulate the physiological ratio between drug and intestinal fluid volume.

Data set [3] in a line: Storage stability at elevated temperatures (sum of known and unknown impurities). As to the method: The raw materials (a) Licofelone, (b) Licofelone choline salt (example 1A) and (c) Licofelone tromethamine salt (example 2) were stored in open containers at 40, 50, 60 and 70° C. as well as at 40° C. with 75% relative humidity. Samples were analyzed after storage periods of 4 and 8 weeks. A validated method was applied for quantification of the five known impurities as well as of unknown impurities.

Setting [4] is: stored at elevated temperatures for several weeks.

Regarding `CC1(C)Cc2c(-c3ccccc3)c(-c3ccc(Cl)cc3)c(CC(=O)O)n2C1` [Licofelone choline salt, 6-(4-chlorophenyl)-2,2-dimethyl-7-phenyl-2,3-dihydro-1H-pyrrolizin-5-ylacetic acid choline salt], the solubility in data set [1] turned out to be 274000 µg/mL. Besides, in data set [2], the “solubility in 30 ml FaSSIF, conc.” value is 222 µg/mL and the “solubility in 100 ml FaSSIF, conc.” value is 228 µg/mL. The stability on storage result in data set [3] (stored at moderately elevated temperatures for several weeks) is listed as “more stable than the free acid”.

As for `CC1(C)Cc2c(-c3ccccc3)c(-c3ccc(Cl)cc3)c(CC(=O)O)n2C1` [Licofelone (free acid), 6-(4-chlorophenyl)-2,2-dimethyl-7-phenyl-2,3-dihydro-1H-pyrrolizin-5-ylacetic acid, reference compound], in data set [1], the solubility came to 47000 µg/mL (≈ 124000 µM). In data set [2], the “solubility in 30 ml FaSSIF, conc.” value is 7 µg/mL (≈ 18.4 µM) and the “solubility in 100 ml FaSSIF, conc.” value was 7 µg/mL (≈ 18.4 µM). Also, the stability on storage result in data set [3] (setting [4]) is “undergoes degradation”.

In data set [1], `CC1(C)Cc2c(-c3ccccc3)c(-c3ccc(Cl)cc3)c(CC(=O)O)n2C1` [Licofelone tromethamine salt, 6-(4-chlorophenyl)-2,2-dimethyl-7-phenyl-2,3-dihydro-1H-pyrrolizin-5-ylacetic acid tromethamine salt] gave a solubility of 66000 µg/mL. In data set [2], the “solubility in 30 ml FaSSIF, conc.” value is 149 µg/mL and the “solubility in 100 ml FaSSIF, conc.” value is 165 µg/mL. The stability on storage entry in data set [3] (setting [4]) is “more stable than the free acid and the choline salt”.
